From ChEMBL document CHEMBL3885881, “DrugMatrix”

Species: Rattus norvegicus
Assay: DrugMatrix - Regimen: Daily Repeat
Format: toxicity, organism-based, Sprague-Dawley
Parameters: regimen Daily Repeat, gender Male, age 6-8 weeks
Settings: in vivo, sc, 0 mg/kg, route mini-PUMP - SUBCUTANEOUS, dose level Control, vehicle 100 % SALINE; for ABSOLUTE BASOPHIL / ABSOLUTE EOSINOPHIL / ABSOLUTE LYMPHOCYTE / ABSOLUTE MONOCYTE / ABSOLUTE SEGMENTED NEUTROPHIL / BASOPHIL / EOSINOPHIL / ERYTHROCYTE COUNT / HEMATOCRIT / HEMOGLOBIN / LEUKOCYTE COUNT / LYMPHOCYTE / MEAN CORPUSCULAR HEMOGLOBIN / MEAN CORPUSCULAR HEMOGLOBIN CONCENTRATION / MEAN CORPUSCULAR VOLUME / MONOCYTE / NEUTROPHIL / NUCLEATED RED BLOOD CELLS / PLATELET COUNT: tissue Blood; for ALANINE AMINOTRANSFERASE / ALBUMIN / ALKALINE PHOSPHATASE / ASPARTATE AMINOTRANSFERASE / BLOOD UREA NITROGEN / CARBON DIOXIDE / CHLORIDE / CHOLESTEROL / CREATININE / GLUCOSE / LACTATE DEHYDROGENASE / LIPASE / PHOSPHORUS / POTASSIUM / SODIUM / TOTAL BILIRUBIN / TOTAL PROTEIN / URIC ACID: tissue Plasma

For `NC[C@H](O)c1ccc(O)c(O)c1` [NOREPINEPHRINE], the “ABSOLUTE BASOPHIL” value (72 h, time 3 day) was 0 CELLS/uL, the “ABSOLUTE EOSINOPHIL” value (72 h, time 3 day) was 77.17 CELLS/uL and the “ABSOLUTE LYMPHOCYTE” value (72 h, time 3 day) was 14293.83 CELLS/uL. For the same compound, the “ABSOLUTE MONOCYTE” value (72 h, time 3 day) was 354 CELLS/uL, the “ABSOLUTE SEGMENTED NEUTROPHIL” value (72 h, time 3 day) was 1658.33 CELLS/uL and the BASOPHIL (72 h, time 3 day) was 0%. The EOSINOPHIL (72 h, time 3 day) was 0.5%, the “ERYTHROCYTE COUNT” value (72 h, time 3 day) was 6.27 x10E6/uL and the HEMATOCRIT (72 h, time 3 day) was 36.95%. The HEMOGLOBIN (72 h, time 3 day) was 13.4 G/DL, the “LEUKOCYTE COUNT” value (72 h, time 3 day) was 16.38 x10E3/uL and the LYMPHOCYTE (72 h, time 3 day) was 87.17%. For the same compound, the “MEAN CORPUSCULAR HEMOGLOBIN” value (72 h, time 3 day) was 21.42 pg, the “MEAN CORPUSCULAR HEMOGLOBIN CONCENTRATION” value (72 h, time 3 day) was 36.27 G/DL and the “MEAN CORPUSCULAR VOLUME” value (72 h, time 3 day) was 59.03 fL. For the same compound, the MONOCYTE (72 h, time 3 day) was 2%, the NEUTROPHIL (72 h, time 3 day) was 10.33% and the “NUCLEATED RED BLOOD CELLS” value (72 h, time 3 day) was 0 /100WBC. For the same compound, the “PLATELET COUNT” value (72 h, time 3 day) was 904.67 x10E3/uL, the “ALANINE AMINOTRANSFERASE” value (72 h, time 3 day) was 48.33 u/L and the ALBUMIN (72 h, time 3 day) was 3.82 G/DL. For the same compound, the “ALKALINE PHOSPHATASE” value (72 h, time 3 day) was 282.33 u/L, the “ASPARTATE AMINOTRANSFERASE” value (72 h, time 3 day) was 86.83 u/L and the “BLOOD UREA NITROGEN” value (72 h, time 3 day) was 20.17 mg/dL. For the same compound, the “CARBON DIOXIDE” value (72 h, time 3 day) was 34.67 mmol/L, the CHLORIDE (72 h, time 3 day) was 102 MEQ/L and the CHOLESTEROL (72 h, time 3 day) was 71.5 mg/dL. The CREATININE (72 h, time 3 day) was 0.2 mg/dL, the GLUCOSE (72 h, time 3 day) was 136.83 mg/dL and the “LACTATE DEHYDROGENASE” value (72 h, time 3 day) was 159 u/L. It also gave an LIPASE (72 h, time 3 day) of 9 u/L, a PHOSPHORUS (72 h, time 3 day) of 10.12 mg/dL and a POTASSIUM (72 h, time 3 day) of 5.92 MEQ/L. The SODIUM (72 h, time 3 day) was 147.8 MEQ/L, the “TOTAL BILIRUBIN” value (72 h, time 3 day) was 0.2 mg/dL and the “TOTAL PROTEIN” value (72 h, time 3 day) was 6.05 G/DL. The “URIC ACID” value (72 h, time 3 day) was 1.4 mg/dL, the “ABSOLUTE BASOPHIL” value (120 h, time 5 day) was 0 CELLS/uL and the “ABSOLUTE EOSINOPHIL” value (120 h, time 5 day) was 0 CELLS/uL. The “ABSOLUTE LYMPHOCYTE” value (120 h, time 5 day) was 14257.33 CELLS/uL, the “ABSOLUTE MONOCYTE” value (120 h, time 5 day) was 326 CELLS/uL and the “ABSOLUTE SEGMENTED NEUTROPHIL” value (120 h, time 5 day) was 3216.67 CELLS/uL. The BASOPHIL (120 h, time 5 day) was 0%, the EOSINOPHIL (120 h, time 5 day) was 0% and the “ERYTHROCYTE COUNT” value (120 h, time 5 day) was 6.11 x10E6/uL. The HEMATOCRIT (120 h, time 5 day) was 36.22%, the HEMOGLOBIN (120 h, time 5 day) was 13.18 G/DL and the “LEUKOCYTE COUNT” value (120 h, time 5 day) was 17.8 x10E3/uL. For the same compound, the LYMPHOCYTE (120 h, time 5 day) was 80.5%, the “MEAN CORPUSCULAR HEMOGLOBIN” value (120 h, time 5 day) was 21.62 pg and the “MEAN CORPUSCULAR HEMOGLOBIN CONCENTRATION” value (120 h, time 5 day) was 36.42 G/DL. The “MEAN CORPUSCULAR VOLUME” value (120 h, time 5 day) was 59.37 fL, the MONOCYTE (120 h, time 5 day) was 1.83% and the NEUTROPHIL (120 h, time 5 day) was 17.67%. For the same compound, the “NUCLEATED RED BLOOD CELLS” value (120 h, time 5 day) was 0 /100WBC, the “PLATELET COUNT” value (120 h, time 5 day) was 1311 x10E3/uL and the “ALANINE AMINOTRANSFERASE” value (120 h, time 5 day) was 47 u/L. The ALBUMIN (120 h, time 5 day) was 3.83 G/DL, the “ALKALINE PHOSPHATASE” value (120 h, time 5 day) was 260.33 u/L and the “ASPARTATE AMINOTRANSFERASE” value (120 h, time 5 day) was 76.17 u/L. The “BLOOD UREA NITROGEN” value (120 h, time 5 day) was 14.67 mg/dL, the “CARBON DIOXIDE” value (120 h, time 5 day) was 31.33 mmol/L and the CHLORIDE (120 h, time 5 day) was 101.17 MEQ/L. It also gave a CHOLESTEROL (120 h, time 5 day) of 75 mg/dL, a CREATININE (120 h, time 5 day) of 0.16 mg/dL and a GLUCOSE (120 h, time 5 day) of 152.67 mg/dL. The “LACTATE DEHYDROGENASE” value (120 h, time 5 day) was 147.33 u/L, the LIPASE (120 h, time 5 day) was 9.33 u/L and the PHOSPHORUS (120 h, time 5 day) was 10.97 mg/dL. The POTASSIUM (120 h, time 5 day) was 6 MEQ/L, the SODIUM (120 h, time 5 day) was 145.52 MEQ/L and the “TOTAL BILIRUBIN” value (120 h, time 5 day) was 0.17 mg/dL. The “TOTAL PROTEIN” value (120 h, time 5 day) was 5.83 G/DL, the “URIC ACID” value (120 h, time 5 day) was 1.27 mg/dL and the “ABSOLUTE BASOPHIL” value ([…], time 14 day) was 0 CELLS/uL. The “ABSOLUTE EOSINOPHIL” value ([…], time 14 day) was 64.5 CELLS/uL, the “ABSOLUTE LYMPHOCYTE” value ([…], time 14 day) was 12507.83 CELLS/uL and the “ABSOLUTE MONOCYTE” value ([…], time 14 day) was 380.33 CELLS/uL. The “ABSOLUTE SEGMENTED NEUTROPHIL” value ([…], time 14 day) was 2414 CELLS/uL, the BASOPHIL ([…], time 14 day) was 0% and the EOSINOPHIL ([…], time 14 day) was 0.5%. For the same compound, the “ERYTHROCYTE COUNT” value ([…], time 14 day) was 6.1 x10E6/uL, the HEMATOCRIT ([…], time 14 day) was 35.4% and the HEMOGLOBIN ([…], time 14 day) was 12.88 G/DL. For the same compound, the “LEUKOCYTE COUNT” value ([…], time 14 day) was 15.37 x10E3/uL, the LYMPHOCYTE ([…], time 14 day) was 80.83% and the “MEAN CORPUSCULAR HEMOGLOBIN” value ([…], time 14 day) was 21.18 pg. For the same compound, the “MEAN CORPUSCULAR HEMOGLOBIN CONCENTRATION” value ([…], time 14 day) was 36.43 G/DL, the “MEAN CORPUSCULAR VOLUME” value ([…], time 14 day) was 58.17 fL and the MONOCYTE ([…], time 14 day) was 2.17%. The NEUTROPHIL ([…], time 14 day) was 16.5%, the “NUCLEATED RED BLOOD CELLS” value ([…], time 14 day) was 0.17 /100WBC and the “PLATELET COUNT” value ([…], time 14 day) was 1016 x10E3/uL. The “ALANINE AMINOTRANSFERASE” value ([…], time 14 day) was 53.33 u/L, the ALBUMIN ([…], time 14 day) was 3.93 G/DL and the “ALKALINE PHOSPHATASE” value ([…], time 14 day) was 319.83 u/L. For the same compound, the “ASPARTATE AMINOTRANSFERASE” value ([…], time 14 day) was 84 u/L, the “BLOOD UREA NITROGEN” value ([…], time 14 day) was 15.5 mg/dL and the “CARBON DIOXIDE” value ([…], time 14 day) was 34 mmol/L. For the same compound, the CHLORIDE ([…], time 14 day) was 101.83 MEQ/L, the CHOLESTEROL ([…], time 14 day) was 57 mg/dL and the CREATININE ([…], time 14 day) was 0.21 mg/dL. The GLUCOSE ([…], time 14 day) was 182.33 mg/dL, the “LACTATE DEHYDROGENASE” value ([…], time 14 day) was 104.67 u/L and the LIPASE ([…], time 14 day) was 9.17 u/L. For the same compound, the PHOSPHORUS ([…], time 14 day) was 11.12 mg/dL, the POTASSIUM ([…], time 14 day) was 5.81 MEQ/L and the SODIUM ([…], time 14 day) was 144.85 MEQ/L. The “TOTAL BILIRUBIN” value ([…], time 14 day) was 0.18 mg/dL, the “TOTAL PROTEIN” value ([…], time 14 day) was 5.92 G/DL and the “URIC ACID” value ([…], time 14 day) was 1.38 mg/dL.
